# How the values were obtained:
# [1] = system: tumor necrosis factor-alpha; settings: cited from earlier work
# spleen [2] = assay: In vivo sequestration of injected CTG-labeled MNC in the spleen, flow cytometry (Example 9); set-up: species or system mouse; settings: cells injected day 7, one hour
# [3] = system: active germinal centers in the spleen; assay: Dexamethasone pretreatment: ex vivo stem cell binding to splenic sections, spleen weight, MNC and germinal centers (Example 8)
# blood lymphocytes = assay: Blood lymphocytes (CBC) after oral dexamethasone (Example 20); format: in vivo, mouse; settings: placebo about 1700
# [4] = system: osteoarthritis (OA), tendon injury, or osteochondral defect; assay: Equine outcome after stem cell (MSC) injection with dexamethasone pretreatment (Example 16); format: in vivo; settings: 5.7 mg/kg HED, one horse
# Experimental: Approximately 48 hours later male or female horses with osteoarthritis (OA), tendon injury, or osteochondral defect were intra-articularly (IA) or intra-tendon injected with either allogeneic adipose-derived mesenchymal stem cells (MSCs) or with autologous, bone marrow derived culture expanded MSCs.
# equine bone marrow MSC [5] = assay: Osteocyte, chondrocyte and adipocyte differentiation of MSC from treated horses (Example 21); format: in vivo, horse; settings: for osteocyte differentiation: not different
# Experimental: 1 g of Alizarin Red S (Sigma-Aldrich) was mixed with 50 ml of DI water to make a 50 ml solution of Alizarin Red S 2%. The pH of the Alizarin Red S solution was adjusted to 4.1-4.3 using ammonium hydroxide. The solution was filtered through a vacuum filtration system, then transferred to a 50 ml conical tube and stored protected from light.
# 250 mg of Oil Red O (Sigma-Aldrich) was added to 50 mL of isopropanol to make a 50 ml solution of Oil Red O 0.5%. The solution was mixed well, then filtered through a vacuum filtration system. After that, it was stored as a stock solution in a 50 ml conical tube wrapped in aluminum foil protected from light. On the staining day, 3 parts of stock Oil Red O 0.5% were mixed with 2 parts of DI water to make a working stock solution. This solution was incubated for 10 min and the forming precipitate removed by filtration through a sterile filter.
# 50 mg of Safranin O (Sigma-Aldrich) was added to 50 ml of DI water to make a 50 ml solution of Safranin O 0.1%. The solution was mixed well, then filtered through a vacuum filtration system. After that, it was stored in 50 ml conical tube protected from light.
# After BM withdrawal from each vial for the Giemsa staining assay, another 100 μl of BM was withdrawn, and plated in CFU-F assay media (10 ml medium per T25 flasks; 2× total) 36 hours after it was extracted from the horse. MSCs were passaged in MesenCult™ MSC Basal Medium (Human; growth medium; including stimulatory supplement) until passage number 3 (P3). After trypsinization of the cells, they were mixed with an equivalent volume of growth medium, centrifuged (230 g for 3 min at RT) and resuspended in 1 ml of growth medium. Cells were counted and seeded using 30,000 cells/well of a 12 well plate (30,000 cells/well seeded in 3 wells; T1, T2 and one negative control). The seeded cells (P4) of T1 and T2 were left expanding in growth medium for two days, followed by a medium change into osteocyte differentiation medium (Stem Pro Osteocyte Differentiation Basal Medium and supplement; Gibco). The latter was changed every 2-3 days for all the plates. Morphological changes were documented by taking images using the EVOS XL Core microscope. Day 1 corresponds to MSCs being in differentiation medium for 24 h, Day 2 for 48 h etc. Two time points (T1: Day 4 and T2: Day 7 with one 12-well plate for both time points) were chosen for the osteocyte staining (Alizarin Red S) to assess the onset as well as the differentiation extent of MSCs from AVM0703 vs Placebo treated horses. […]
# MSCs were passaged in MesenCult™ MSC Basal Medium (Human; including stimulatory supplement) until passage number 4 (P4). […] Cells were counted and seeded using a density of 80,000 cells/well of a 12 well plate (80,000 cells/well seeded in 3 wells; T1, T2 and one negative control). […]
# equine bone marrow MSC [6] = assay: Equine bone marrow CFU-F assay after IV dexamethasone (Example 21); format: in vivo, horse; settings: Day 14 after plating; 3.18 mg/kg (HED 6 mg/kg) IV; placebo about 46.6
# germinal center = assay: Germinal center intensity by FITC-PNA in spleen (Example 18); format: in vivo, mouse; settings: about 48 hours, controls approximately 40
# Experimental: The mice were sacrificed by exsanguination and then residual blood cells flushed out with 5 U heparin/ml PBS via retrograde flush into the thoracic jugular vein. The spleens were removed, weighed wet, and then fixed in 10% formalin. Subsequently the spleens were sectioned via proprietary methods and then incubated with FITC-PNA at 4 deg.C for 24 hours, washed, placed on slides and immunofluorescent images were captured. Metamorph software was used to quantify the immunofluorescent signal. Average germinal center intensity measured by FITC-PNA average intensity was approximately 40 in controls, reduced to about 33 at the 6 mg/kg HED, reduced to about 22.5 at the 9 mg/kg HED, and further reduced to about 15 at the 11 mg/kg HED.
# spleen [7] = assay: Splenic sequestration and circulating numbers of injected CTG-labeled stem cells, flow cytometry (Example 14); format: in vivo, mouse; settings: 1 mg IP days -7, -4, -1 (HED 7.4 mg/kg)
# Source text: Control mice (n=4) were IP injected with the same volume per body weight of 70% ethanol diluted 1:10 in PBS. Sixty minutes later the mice were sacrificed by exsanguination and spleens and blood collected for flow cytometry. The spleens were dissociated to single cell suspensions prior to flow cytometry. CTG-labeled bone marrow mononuclear stem cells were detected in the spleen and lysed whole blood using flow cytometry.
# [8] = single 1 mg, 7 days prior to harvest
compound,measurement,setting,value
Nc1cccc2c1CN(C1CCC(=O)NC1=O)C2=O (stereo not drawn) [Lenalidomide],potency in inhibiting tumor necrosis factor-alpha relative to thalidomide,[1],"50,000 times"
C[C@@H]1C[C@H]2[C@@H]3CCC4=CC(=O)C=C[C@]4(C)[C@@]3(F)[C@@H](O)C[C@]2(C)[C@@]1(O)C(=O)CO [dexamethasone],reduction of MNC CTG total cell number accumulation in the spleen,"spleen [2]; 3 mgs total (1 mg ip day 0, 2 and 5)",approximately 70%
same,reduction of MNC CTG total cell number accumulation in the spleen,spleen [2]; total 2 mgs (1 mg ip day 0 and day 4),33-43%
same,reduction of mononuclear stem cell binding to spleen sections,[3]; day 7 after single 1 mg IP,30-40%
same,increase of percentage of stem cells within MNC fractions from whole blood or bone marrow compared to control (average),[3]; [8],32%
same,reduction of PNA labeled germinal centers,[3]; [8],up to 24%
same,reduction of average circulating MNC number,[3]; [8],34%
same,reduction of spleen weights (average),[3]; [8],22%
same,lymphocytes,blood lymphocytes; single acute HED 12 mg/kg oral on day -2,about 170 per microliter
same,lymphocytes,"blood lymphocytes; two repeat doses HED 6 mg/kg oral, day -2 and day -1",about 1000 per microliter
same,"return to work, tendon injury (DDFT grade 3)",[4],≤ 6 months
same,osteocyte differentiation,"equine bone marrow MSC [5]; day 4 of assay, placebo 1.75",3.19
same,chondrocyte culture area,"equine bone marrow MSC [5]; day 6 of assay, placebo 23.4%",40.1%
same,osteocyte differentiation,"equine bone marrow MSC [5]; day 7 of assay, placebo 4.29",4.58
same,adipocyte numbers,"equine bone marrow MSC [5]; day 24 of assay, placebo 4.8, no difference",7.4 adipocytes
same,MSC number (CFU-F),equine bone marrow MSC [6],about 78.8 CFU-F
same,average germinal center intensity measured by FITC-PNA average intensity,germinal center; 6 mg/kg HED IP,about 33
same,average germinal center intensity measured by FITC-PNA average intensity,germinal center; 9 mg/kg HED IP,about 22.5
same,average germinal center intensity measured by FITC-PNA average intensity,germinal center; 11 mg/kg HED IP,about 15
same,circulating numbers of CTG-stem cells,"spleen [7]; controls 4,500","49,000 CTG-stem cells"
same,splenic sequestration 60 minutes after injection,"spleen [7]; controls 665,000","285,000 CTG-stem cells"

# Source: patent US10426740B1, “Compositions and methods to inhibit stem cell and progenitor cell binding to lymphoid tissue and for regenerating germinal centers in lymphatic tissues” (AVM BIOTECHNOLOGY, LLC, priority 2010, dated 2019)
